Experimental findings from patent US10519152B2, “Compounds and their use in treating cancer” (AstraZeneca AB, priority 2017, dated 2019) are described below.

For this experiment, the target named is T1, Estrogen Receptor (ERα) in MCF-7 human ductal carcinoma breast cell line (Homo sapiens, UniProt P03372).
T1 construct: endogenous in cells; host or cells: MCF-7
T1 sequence (P03372 1-595): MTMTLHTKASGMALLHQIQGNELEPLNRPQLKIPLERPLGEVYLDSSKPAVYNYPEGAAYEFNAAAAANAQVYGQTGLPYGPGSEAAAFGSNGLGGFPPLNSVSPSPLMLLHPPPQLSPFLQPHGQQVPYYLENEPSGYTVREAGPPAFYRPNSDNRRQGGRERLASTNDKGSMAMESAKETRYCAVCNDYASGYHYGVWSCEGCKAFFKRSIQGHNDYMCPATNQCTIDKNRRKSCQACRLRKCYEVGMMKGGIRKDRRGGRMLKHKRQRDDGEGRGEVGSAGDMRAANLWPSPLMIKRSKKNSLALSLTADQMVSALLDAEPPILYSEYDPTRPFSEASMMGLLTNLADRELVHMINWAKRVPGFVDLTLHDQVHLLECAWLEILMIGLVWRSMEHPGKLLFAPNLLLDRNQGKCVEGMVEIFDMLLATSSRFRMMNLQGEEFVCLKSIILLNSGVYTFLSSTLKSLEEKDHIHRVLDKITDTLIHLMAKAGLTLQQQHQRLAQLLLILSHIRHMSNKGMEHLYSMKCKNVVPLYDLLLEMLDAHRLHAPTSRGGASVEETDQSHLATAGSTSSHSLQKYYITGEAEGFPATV
Kind of experiment: MCF-7 ER degradation assay (cell based immuno-fluorescence). The settings on record: MCF-7 cells; for ER degradation ≥ 90% at 0.3 μM: ER degradation by fulvestrant at 0.3 μM is defined as 100%; for DC50: 18-22 hours incubation, 50% reduction of ERα expression, single experiment or average of two or more, read-out: MCF-7 ER degradation IC50. The method, then: MCF-7 ER Degradation Assay
The ability of compounds to down-regulate Estrogen Receptor (ER) numbers was assessed in a cell based immuno-fluorescence assay using the MCF-7 human ductal carcinoma breast cell line. MCF-7 cells were revived directly from a cryovial (approx 5×10^6 cells) in Assay Medium (phenol red free Dulbecco's Modified Eagle's medium (DMEM); Sigma D5921) containing 2 mM L-Glutamine and 5% (v/v) Charcoal/Dextran treated foetal calf serum. Cells were syringed once using a sterile 18 G×1.5 inch (1.2×40 mm) broad gauge needle and cell density was measured using a Coulter Counter (Beckman). Cells were further diluted in Assay Medium to a density of 3.75×10^4 cells per mL and 40 μL per well added to transparent bottomed, black, tissue culture-treated 384 well plates (Costar, No. 3712) using a Thermo Scientific Matrix WellMate or Thermo Multidrop. Following cell seeding, plates were incubated overnight at 37° C., 5% CO2 (Liconic carousel incubator). Test data was generated using the LabCyte Echo™ model 555 compound reformatter which is part of an automated workcell (Integrated Echo 2 workcell). Compound stock solutions (10 mM) of the test compounds were used to generate a 384 well compound dosing plate (Labcyte P-05525-CV1). 40 μL of each of the 10 mM compound stock solutions was dispensed into the first quadrant well and then 1:100 step-wise serial dilutions in DMSO were performed using a Hydra II (MATRIX UK) liquid handling unit to give 40 μL of diluted compound into quadrant wells 2 (0.1 mM), 3 (1 μM) and 4 (0.01 μM), respectively. 40 μL of DMSO added to wells in row P on the source plate allowed for DMSO normalisation across the dose range. To dose the control wells 40 μL of DMSO was added to row O1 and 40 μL of 100 μM fulvestrant in DMSO was added to row O3 on the compound source plate.
The Echo uses acoustic technology to perform direct microplate-to-microplate transfers of DMSO compound solutions to assay plates. The system can be programmed to transfer volumes as low as 2.5 nL in multiple increments between microplates and in so doing generates a serial dilution of compound in the assay plate which is then back-filled to normalise the DMSO concentration across the dilution range. Compounds were dispensed onto the cell plates with a compound source plate prepared as above producing a 12 point duplicate […] dose range with 3-fold dilutions and one final 10-fold dilution using the Integrated Echo 2 workcell. The maximum signal control wells were dosed with DMSO to give a final concentration of 0.3%, and the minimum signal control wells were dosed with fulvestrant to give a final concentration of 100 nM accordingly. Plates were further incubated for 18-22 hours at 37° C., 5% CO2 and then fixed by the addition of 20 μL of 11.1% (v/v) formaldehyde solution (in phosphate buffered saline (PBS)) giving a final formaldehyde concentration of 3.7% (v/v). Cells were fixed at room temperature for 20 mins before being washed two times with 250 μL PBS/Proclin (PBS with a Biocide preservative) using a BioTek platewasher, 40 μL of PBS/Proclin was then added to all wells and the plates stored at 4° C. The fixing method described above was carried out on the Integrated Echo 2 workcell. Immunostaining was performed using an automated AutoElisa workcell. The PBS/Proclin was aspirated from all wells and the cells permeabilised with 40 μL PBS containing 0.5% Tween™ 20 (v/v) for 1 hour at room temperature. The plates were washed three times in 250 μL of PBS/0.05% (v/v) Tween 20 with Proclin (PBST with a Biocide preservative) and then 20 μL of ERα (SP1) Rabbit monoclonal antibody (Thermofisher) 1:1000 in PBS/Tween™/3% (w/v) Bovine Serum Albumin was added. The plates were incubated overnight at 4° C. (Liconic carousel incubator) and then washed three times in 250 μL of PBS/0.05% (v/v) Tween™ 20 with Proclin (PBST). […]

Regarding `Cc1ncsc1-c1ccc(CNC(=O)[C@@H]2C[C@@H](O)CN2C(=O)[C@@H](NC(=O)COC[C@@H]2CC2COCCOc2cc(F)c([C@@H]3c4[nH]c5ccccc5c4C[C@@H](C)N3CC(C)(C)F)c(F)c2)C(C)(C)C)cc1` (single isomer, unassigned) [Example 123, (2S,4R)-1-[(2S)-2-[[2-[[(1R*2S*)-2-[2-[3,5-Difluoro-4-[(R,3R)-2-(2-fluoro-2-methyl-propyl)-3-methyl-1,3,4,9-tetrahydropyrido[3,4-b]indol-1-yl]phenoxy]ethoxymethyl]cyclopropyl]methoxy]acetyl]amino]-3,3-dimethyl-butanoyl]-4-hydroxy-N-[[4-(4-methylthiazol-5-yl)phenyl]methyl]pyrrolidine-2-carboxamide], the “ER degradation ≥ 90% at 0.3 μM” value is on record as “•” and the DC50 came out at 0.5 nM.
For `Cc1ncsc1-c1ccc(CNC(=O)[C@@H]2C[C@@H](O)CN2C(=O)[C@@H](NC(=O)COC[C@@H]2CC2COCCOc2cc(F)c([C@@H]3c4[nH]c5ccccc5c4C[C@@H](C)N3CC(C)(C)F)c(F)c2)C(C)(C)C)cc1` (single isomer, unassigned) [Example 124, (2S,4R)-1-[(2S)-2-[[2-[[(1R*2S*)-2-[2-[3,5-Difluoro-4-[(1R,3R)-2-(2-fluoro-2-methyl-propyl)-3-methyl-1,3,4,9-tetrahydropyrido[3,4-b]indol-1-yl]phenoxy]ethoxymethyl]cyclopropyl]methoxy]acetyl]amino]-3,3-dimethyl-butanoyl]-4-hydroxy-N-[[4-(4-methylthiazol-5-yl)phenyl]methyl]pyrrolidine-2-carboxamide], the “ER degradation ≥ 90% at 0.3 μM” value is “•” and the DC50 came to 0.8 nM.
The matching figures for `Cc1ncsc1-c1ccc(CNC(=O)[C@@H]2C[C@@H](O)CN2C(=O)[C@@H](NC(=O)COCc2ccc(COc3cc(F)c([C@@H]4c5[nH]c6ccccc6c5C[C@@H](C)N4CC(C)(C)F)c(F)c3)cc2)C(C)(C)C)cc1` [Example 19, (2S,4R)-1-((S)-2-(2-((4-((3,5-difluoro-4-((1R,3R)-2-(2-fluoro-2-methylpropyl)-3-methyl-2,3,4,9-tetrahydro-1H-pyrido[3,4-b]indol-1-yl)phenoxy)methyl)benzyl)oxy)acetamido)-3,3-dimethylbutanoyl)-4-hydroxy-N-(4-(4-methylthiazol-5-yl)benzyl)pyrrolidine-2-carboxamide]: “••” and 3.2 nM.
For the compound `Cc1ncsc1-c1ccc(CNC(=O)[C@@H]2C[C@@H](O)CN2C(=O)[C@@H](NC(=O)CCCCCCNC(=O)/C=C/c2cc(F)c([C@@H]3c4[nH]c5ccccc5c4C[C@@H](C)N3CC(C)(C)F)c(F)c2)C(C)(C)C)cc1` [Example 59, (2S,4R)-1-((S)-2-(7-((E)-3-(3,5-difluoro-4-((1R,3R)-2-(2-fluoro-2-methylpropyl)-3-methyl-2,3,4,9-tetrahydro-1H-pyrido[3,4-b]indol-1-yl)phenyl)acrylamido)heptanamido)-3,3-dimethylbutanoyl)-4-hydroxy-N-(4-(4-methylthiazol-5-yl)benzyl)pyrrolidine-2-carboxamide, Trifluoroacetic Acid], the “ER degradation ≥ 90% at 0.3 μM” value is reported as “••” and the DC50 is 0.8 nM.
Take `Cc1ncsc1-c1ccc(CNC(=O)[C@@H]2C[C@@H](O)CN2C(=O)[C@@H](NC(=O)COCC(F)(F)COCCCCCOc2cc(F)c([C@@H]3c4[nH]c5ccccc5c4C[C@@H](C)N3CC(C)(C)F)c(F)c2)C(C)(C)C)cc1` [Example 126, (2S,4R)-1-((S)-2-(2-(3-((5-(3,5-Difluoro-4-((1R,3R)-2-(2-fluoro-2-methylpropyl)-3-methyl-2,3,4,9-tetrahydro-1H-pyrido[3,4-b]indol-1-yl)phenoxy)pentyl)oxy)-2,2-difluoropropoxy)acetamido)-3,3-dimethylbutanoyl)-4-hydroxy-N-(4-(4-methylthiazol-5-yl)benzyl)pyrrolidine-2-carboxamide]: the “ER degradation ≥ 90% at 0.3 μM” value was “•” and the DC50 amounted to 1.8 nM.
As for `Cc1ncsc1-c1ccc(CNC(=O)[C@@H]2C[C@@H](O)CN2C(=O)[C@@H](NC(=O)C2(OCCCOCCCOc3cc(F)c([C@@H]4c5[nH]c6ccccc6c5C[C@@H](C)N4CC(C)(C)F)c(F)c3)CC2)C(C)(C)C)cc1` [Example 135, (2S,4R)-1-((S)-2-(1-(3-(3-(3,5-Difluoro-4-((1R,3R)-2-(2-fluoro-2-methylpropyl)-3-methyl-2,3,4,9-tetrahydro-1H-pyrido[3,4-b]indol-1-yl)phenoxy)propoxy)propoxy)cyclopropane-1-carboxamido)-3,3-dimethylbutanoyl)-4-hydroxy-N-(4-(4-methylthiazol-5-yl)benzyl)pyrrolidine-2-carboxamide], the “ER degradation ≥ 90% at 0.3 μM” value is recorded as “•”.
